Assay results taken from patent US12036243B2, “BCMA CAR-T cells with enhanced activities” (Allogene Therapeutics, Inc., priority 2020, dated 2024).

Key:
[1] = test system: BCMA CAR T cells with or without the CACCR
Method: We tested in an in vitro cell killing assay the effect of 150 nM dasatinib on the activities of the BCMA CAR T cells with or without the CACCR.

[2] = test system: BCMA CAR T cells, with or without the CACCR; experiment: Rituximab-mediated CAR T cell depletion in vivo (MM.1S-Luc-GFP-bearing mice); parameters: species or system NSG mice
Method: Next, we tested the effect of rituximab on decreasing BCMA CAR T cells, with or without the CACCR, in vivo. […] Rituximab (10 mg/kg) or PBS vehicle control was dosed intraperitoneally starting on the day of CAR T cell dosing and then daily for 4 additional days (n=9 or 10 per group).

[3] = test system: BCMA CAR T cells with or without the CACCR; experiment: Rituximab NK cell-mediated antibody-dependent cellular cytotoxicity assay; assay type: cell-based; details: both types of BCMA CAR T cells
From the text: (§1) To minimize any potential safety concerns in clinical development, the BCMA CAR construct was designed to incorporate two rituximab mimotopes, which would sensitize the BCMA CAR T cells to rituximab-mediated depletion. We next tested the effects of rituximab on the BCMA CAR T cells with or without the CACCR.

[4] = test system: BCMA CAR T cells with or without the CACCR; experiment: Rituximab complement-dependent cytotoxicity assay; assay type: cell-based; details: both types of BCMA CAR T cells
From the text: as §1

Row | Compound | cytotoxicity of BCMA CAR T cells [1] | tumor burden following rituximab-mediated CAR T cell depletion ([2]; rituximab 10 mg/kg i.p.) | CAR T cell counts in peripheral blood ([2]; rituximab 10 mg/kg i.p. daily for 5 days, 7 days post-CAR T cell dosing) | viable CAR T cells [3] | viable CAR T cells [4]
1 | Cc1nc(Nc2ncc(C(=O)Nc3c(C)cccc3Cl)s2)cc(N2CCN(CCO)CC2)n1 [dasatinib] | abolished the cytotoxicity | – | – | – | –
2 | rituximab | – | compromised anti-tumor efficacy | efficient and complete elimination of both CAR T cells | significantly decreased viable CAR T cells in a dose-responsive manner | significantly decreased viable CAR T cells in a dose-responsive manner
